{"source": "patent US9149038B2", "about": "“4-amino-6-(heterocyclic)picolinates and 6-amino-2-(heterocyclic)pyrimidine-4-carboxylates and their use as herbicides” (Dow AgroSciences LLC, priority 2013, dated 2015)", "key": {"[1]": {"test_system": "Key Broadleaf and Grass Weed as well as Crop Species", "assay": "Post-Emergent Test I: postemergent herbicidal activity, visual phytotoxicity rating 10 days after treatment (Table 5)", "format": "in vivo", "conditions": "4 kg ai/ha; for Visual Growth Reduction (%) 10 Days After Application ECHCG: barnyardgrass (Echinochloa crus-galli); for pest or weed control at 4000 g/ha: post-emergence, 240 h, 10 days after application", "description": "Herbicidal evaluations were made visually on a scale of 0 to 100 where 0 represents no activity and 100 represents complete plant death. Post-Emergent Test I: Seeds of test species were obtained from commercial suppliers and planted into a 5″-round pot containing soil-less media mix (Metro-Mix 360®, Sun Gro Horticulture). Postemergence treatments were planted 8-12 days (d) prior to application and cultured in a greenhouse equipped with supplemental light sources to provide a 16 h photoperiod at 24-29° C. All pots were surface irrigated. Approximately 10 milligrams (mg) of each compound were dissolved in 1.3 mL acetone-DMSO (97:3, volume per volume (v/v)) and diluted with 4.1 mL water-isopropanol-crop oil concentrate (78:20:2, v/v/v) containing 0.02% Triton X-155. Treatments were serial diluted with the above formulation solvent to provide 1.85, 0.926, 0.462 and 0.231 milligrams per milliliter (mg/mL) of test compound delivered in 2.7 mL/pot (roughly equivalent to 4.0, 2.0, 1.0, and 0.5 kg/ha, respectively). Formulated compounds were applied using a DeVilbiss® compressed air sprayer at 2-4 pounds per square inch (psi). Following treatment, pots were returned to the greenhouse for the duration of the experiment. All pots were sub-irrigated as needed to provide optimum growing conditions. All pots were fertilized one time per week by subirrigating with Peters Peat-Lite Special® fertilizer (20-10-20). Phytotoxicity ratings were obtained 10 days after treatment postemergence applications. All evaluations were made visually on a scale of 0 to 100 where 0 represents no activity and 100 represents complete plant death and are presented as indicated in Table 4."}, "[2]": {"conditions": "giant foxtail (Setaria faberi), read-out: Visual Growth Reduction (%) 10 Days After Application SETFA"}, "[3]": {"conditions": "ivyleaf morningglory (Ipomoea hederecea), read-out: Visual Growth Reduction (%) 10 Days After Application IPOHE"}, "[4]": {"conditions": "sunflower (Helianthus annuus), read-out: Visual Growth Reduction (%) 10 Days After Application HELAN"}, "[5]": {"conditions": "wild oats (Avena fatua), read-out: Visual Growth Reduction (%) 10 Days After Application AVEFA"}}, "note": "Read-outs that look alike come from different tables or passages of the source.", "data": [{"smiles": "Nc1cc(-c2cccc3c2OC(F)(F)O3)nc(C(=O)O)c1Cl", "note": "[Compound 85]", "values": [{"measurement": "melting point", "value": 170, "unit": "°C"}]}, {"smiles": "COC(=O)c1nc(-c2ccc3c(c2F)OC(F)(F)O3)nc(N)c1OC", "note": "[Compound 65]", "values": [{"measurement": "melting point", "value": "109 to 111", "unit": "°C"}]}, {"smiles": "COC(=O)c1nc(-c2cc3c(cc2F)OC(F)(F)O3)c(C)c(N)c1Cl", "note": "[Compound 50]", "values": [{"measurement": "melting point", "value": "162 to 165", "unit": "°C"}]}, {"smiles": "COC(=O)c1nc(-c2ccc3c(c2F)OC(F)(F)O3)c(C)c(N)c1Cl", "note": "[Compound 53]", "values": [{"measurement": "melting point", "value": "153.5 to 155", "unit": "°C"}]}, {"smiles": "Cc1c(-c2cc3c(cc2F)OC(F)(F)O3)nc(C(=O)O)c(Cl)c1N", "note": "[Compound 51]", "values": [{"measurement": "Visual Growth Reduction (%) 10 Days After Application ECHCG", "setting": "[1]", "value": "G (0-29)"}, {"measurement": "pest or weed control at 4000 g/ha", "setting": "[1]; [2]", "value": "0 to 29", "unit": "%"}, {"measurement": "pest or weed control at 4000 g/ha", "setting": "[1]; [3]", "value": "0 to 29", "unit": "%"}, {"measurement": "pest or weed control at 4000 g/ha", "setting": "[1]; [4]", "value": "60 to 74", "unit": "%"}, {"measurement": "pest or weed control at 4000 g/ha", "setting": "[1]; [5]", "value": "0 to 29", "unit": "%"}]}, {"smiles": "Cc1c(-c2ccc3c(c2F)OC(F)(F)O3)nc(C(=O)O)c(Cl)c1N", "note": "[Compound 54]", "values": [{"measurement": "Visual Growth Reduction (%) 10 Days After Application ECHCG", "setting": "[1]", "value": "G (0-29)"}, {"measurement": "pest or weed control at 4000 g/ha", "setting": "[1]; [2]", "value": "0 to 29", "unit": "%"}, {"measurement": "pest or weed control at 4000 g/ha", "setting": "[1]; [3]", "value": "0 to 29", "unit": "%"}, {"measurement": "pest or weed control at 4000 g/ha", "setting": "[1]; [4]", "value": "60 to 74", "unit": "%"}, {"measurement": "pest or weed control at 4000 g/ha", "setting": "[1]; [5]", "value": "0 to 29", "unit": "%"}]}, {"smiles": "C=Cc1c(C(=O)OC)nc(-c2ccc3c(c2)OC(F)(F)O3)c(F)c1N", "note": "[Compound 29]", "values": [{"measurement": "melting point", "value": "112 to 114", "unit": "°C"}]}, {"smiles": "COc1cc2c(cc1-c1cc(N)c(Cl)c(C(=O)O)n1)OC(F)(F)O2", "note": "[Compound 39]", "values": [{"measurement": "melting point", "value": "165 to 166", "unit": "°C"}]}, {"smiles": "COC(=O)c1nc(-c2cc(F)c3c(c2)OC(F)(F)O3)cc(N)c1Cl", "note": "[Compound 43]", "values": [{"measurement": "melting point", "value": "176 to 177", "unit": "°C"}]}]}
